This is an account of results in patent US20240277631A1, “SMALL MOLECULE DRUG (ELP-004) TO PREVENT BONE LESIONS CAUSED BY MULTIPLE MYELOMA” (West Virginia University Board of Governors on behalf of …, priority 2023, published 2024).

Data set [1] relates to Murine BMSMCs. In words: cytosolic Ca2+ levels and NFAT nuclear translocation during osteoclastogenesis. The data set is classed as cell-based. The following applies: 100 nM.
In data set [2] the target is T1, CYP2B6 (Homo sapiens, UniProt P20813).
T1 sequence (P20813 1-491): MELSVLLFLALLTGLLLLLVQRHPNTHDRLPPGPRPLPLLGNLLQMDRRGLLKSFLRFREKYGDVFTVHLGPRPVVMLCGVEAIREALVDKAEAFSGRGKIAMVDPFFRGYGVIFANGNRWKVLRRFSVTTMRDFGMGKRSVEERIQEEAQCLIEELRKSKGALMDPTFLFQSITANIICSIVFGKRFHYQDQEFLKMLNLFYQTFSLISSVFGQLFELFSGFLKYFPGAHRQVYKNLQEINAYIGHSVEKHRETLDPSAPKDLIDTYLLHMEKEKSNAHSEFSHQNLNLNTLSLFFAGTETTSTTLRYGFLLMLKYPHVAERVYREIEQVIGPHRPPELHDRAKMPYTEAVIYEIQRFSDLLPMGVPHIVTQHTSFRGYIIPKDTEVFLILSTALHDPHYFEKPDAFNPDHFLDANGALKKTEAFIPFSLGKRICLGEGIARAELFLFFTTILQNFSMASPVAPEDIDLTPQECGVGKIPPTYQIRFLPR
Kind of data set: stability with recombinant CYP2B6. The class given is in vitro ADME. The following applies: recombinant CYP2B6, intrinsic clearance, read-out: Recombinant CYP CLINT. As to the method:
(§1) Depicted in table 2 is cytochrome P450 phenotyping and inhibition by ELP-004. The stability of ELP-004 was tested in the presence of recombinant enzymes CYP1A2, CYP2B6, CYP2C8, CYP2C9, CYP2C19, CYP2D6, and CYP3A4. ELP-004 (1 μM) was incubated with recombinant enzymes and NADPH. The amount of ELP-004 remaining at each timepoint was analyzed by LC-MS/MS. Incubations in control recombinant enzymes were also performed to assess non-enzymatic mediated stability. The intrinsic clearance of ELP-004 was determined. […] A decrease in the formation of the metabolite compared to vehicle control is used to calculate an IC50 value. Metabolite peak area ratio response as a percentage of vehicle control is plotted against the test compound concentration.

Data set [3] concerns osteoclasts. Kind of data set: development of osteoclasts (osteoclastogenesis). The class given is cell-based.
In data set [4] the target is CYP2C9 (Homo sapiens, UniProt P11712). Kind of data set: stability with recombinant CYP2C9. The data set is classed as in vitro ADME. How it is done:
as §1

The target in data set [5] is CYP3A4 (Homo sapiens, UniProt P08684). In words: stability with recombinant CYP3A4. The data set is classed as in vitro ADME. The following applies: recombinant CYP3A4, intrinsic clearance, read-out: Recombinant CYP CLINT. As to the method:
as §1

Data set [6] concerns the target CYP2C19 (Homo sapiens, UniProt P33261). Kind of data set: stability with recombinant CYP2C19. The following applies: recombinant CYP2C19, intrinsic clearance, read-out: Recombinant CYP CLINT. The data set is classed as in vitro ADME. How it is done: as §1
The subject of data set [7] is Murine BMSMCs. Kind of data set: LTB4-induced osteoclast fusion (TRAP, multinucleation, marker mRNA). The class given is cell-based. The following applies: RANKL/LTB4. As to the method: FIGS. 6A-C show ELP-004 blocking LTB4-induced Osteoclast Fusion. (A-C) Murine BMSMCs were grown for up to 21 days in media supplemented with 50 ng/ml m-CSF, 1 ng/ml RANKL and 50 nM LTB4. Each experiment was repeated a minimum of three times. Cells were fixed and stained for Tartrate Resistant Acid Phosphatase (TRAP) activity at days 1, 7, 14 and 21. In schematic A, the number of TRAP positive osteoclast-like cells (out of 100 cells) were counted for each time point; TRAP intensity was also calculated. In schematic B, at each time point, the number of nuclei for each cell was counted and the average number of nuclei per cell for 100 cells is shown. In schematic C, mRNA expression of osteoclast markers such as TRAP5, VATPASE A3, VATPASE D2 and Calcitonin Receptor (CALCR) were measured at days 7 and 14 for both control and treated cells by RT-PCR. […] The expression patterns of osteoclast markers was unaffected by ELP-004, indicating selective inhibition of specific features of osteoclastogenesis.

Data set [8] has as its system CYP enzymes. Kind of data set: induction of CYP enzymes. The data set is classed as in vitro ADME.
In data set [9] the target is T2, CYP2C8 (Homo sapiens, UniProt P10632).
T2 sequence (P10632 1-490): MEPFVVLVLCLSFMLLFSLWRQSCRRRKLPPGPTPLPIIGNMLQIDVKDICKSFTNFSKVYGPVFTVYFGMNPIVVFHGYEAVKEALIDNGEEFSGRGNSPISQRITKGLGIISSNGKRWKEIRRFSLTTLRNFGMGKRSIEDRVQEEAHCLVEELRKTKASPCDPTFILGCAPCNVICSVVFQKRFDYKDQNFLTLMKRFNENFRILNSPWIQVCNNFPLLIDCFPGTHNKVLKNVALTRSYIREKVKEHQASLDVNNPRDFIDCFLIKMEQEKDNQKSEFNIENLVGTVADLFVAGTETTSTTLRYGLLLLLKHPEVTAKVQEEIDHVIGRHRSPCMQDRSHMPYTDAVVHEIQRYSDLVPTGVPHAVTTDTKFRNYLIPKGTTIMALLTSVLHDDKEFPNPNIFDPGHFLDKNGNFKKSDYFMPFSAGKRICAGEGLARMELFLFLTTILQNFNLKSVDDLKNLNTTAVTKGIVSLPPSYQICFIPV
In words: stability with recombinant CYP2C8. The data set is classed as in vitro ADME. The following applies: recombinant CYP2C8, intrinsic clearance, read-out: Recombinant CYP CLINT. As to the method:
as §1

Sequence of CYP2C9 (P11712 whole entry): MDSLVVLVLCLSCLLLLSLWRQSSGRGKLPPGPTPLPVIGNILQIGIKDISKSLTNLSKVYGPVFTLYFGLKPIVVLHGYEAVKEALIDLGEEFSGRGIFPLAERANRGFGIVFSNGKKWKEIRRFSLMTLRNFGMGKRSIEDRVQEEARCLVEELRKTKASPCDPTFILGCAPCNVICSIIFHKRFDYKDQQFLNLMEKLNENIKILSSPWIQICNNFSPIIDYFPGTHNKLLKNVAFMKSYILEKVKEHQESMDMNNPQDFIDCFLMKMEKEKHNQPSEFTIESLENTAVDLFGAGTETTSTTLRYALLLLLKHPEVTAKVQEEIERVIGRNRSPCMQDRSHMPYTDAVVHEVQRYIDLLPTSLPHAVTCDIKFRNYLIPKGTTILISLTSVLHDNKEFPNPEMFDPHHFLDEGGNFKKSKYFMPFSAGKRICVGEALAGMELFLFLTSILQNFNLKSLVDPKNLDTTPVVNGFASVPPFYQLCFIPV
Sequence of CYP2C19 (P33261 whole entry, the tested form may be a part): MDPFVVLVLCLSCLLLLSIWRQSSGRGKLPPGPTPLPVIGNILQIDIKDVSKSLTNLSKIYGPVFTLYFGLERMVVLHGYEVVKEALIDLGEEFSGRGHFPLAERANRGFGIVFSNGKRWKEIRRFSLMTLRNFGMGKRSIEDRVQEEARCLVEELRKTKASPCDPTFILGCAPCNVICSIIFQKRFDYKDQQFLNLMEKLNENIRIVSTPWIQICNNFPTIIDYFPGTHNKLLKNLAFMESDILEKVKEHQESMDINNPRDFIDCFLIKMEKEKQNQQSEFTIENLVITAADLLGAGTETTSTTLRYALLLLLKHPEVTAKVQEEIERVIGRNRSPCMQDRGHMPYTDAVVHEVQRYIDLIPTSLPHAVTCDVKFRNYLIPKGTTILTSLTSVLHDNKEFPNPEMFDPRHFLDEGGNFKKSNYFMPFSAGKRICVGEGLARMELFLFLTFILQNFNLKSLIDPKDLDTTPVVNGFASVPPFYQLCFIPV
Sequence of CYP3A4 (P08684 whole entry): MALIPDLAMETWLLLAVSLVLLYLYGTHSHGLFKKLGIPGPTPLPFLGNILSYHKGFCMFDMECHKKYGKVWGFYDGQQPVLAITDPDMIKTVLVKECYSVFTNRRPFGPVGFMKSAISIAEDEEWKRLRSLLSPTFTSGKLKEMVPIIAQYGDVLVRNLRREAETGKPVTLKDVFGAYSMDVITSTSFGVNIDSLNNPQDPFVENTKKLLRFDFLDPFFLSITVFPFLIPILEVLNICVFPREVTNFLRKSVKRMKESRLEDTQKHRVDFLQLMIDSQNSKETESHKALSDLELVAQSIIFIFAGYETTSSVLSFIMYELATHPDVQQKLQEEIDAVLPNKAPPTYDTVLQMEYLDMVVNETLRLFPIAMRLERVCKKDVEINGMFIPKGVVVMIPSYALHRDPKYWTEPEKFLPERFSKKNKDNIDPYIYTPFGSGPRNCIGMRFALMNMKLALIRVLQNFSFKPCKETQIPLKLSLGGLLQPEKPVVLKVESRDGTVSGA

Regarding `CCC(=O)N(C)c1ccc(Cl)c(Cl)c1` [ELP-004, N-(3,4-dichlorophenyl)-N-methylpropanamide], the NFAT nuclear translocation result in data set [1] (LTB4-induced changes) is “significantly inhibited”; in data set [1] (RANKL-induced osteoclastogenesis), “had no effect”; in data set [1] (TNFα-induced changes) it was “significantly inhibited”. The “cytosolic Ca2+ levels” value in data set [1] (LTB4-induced changes) and in data set [1] (TNFα-induced changes) was “significantly inhibited” each time. In addition, the microsomal CLint at 1 μM in data set [2] is 0.815 µL/min/mg; in [4] (human, recombinant CYP2C9, intrinsic clearance, read-out: Recombinant CYP CLINT), under 0.154 µL/min/mg; in data set [5] it was 0.193 µL/min/mg; in data set [6], 0.279 µL/min/mg; in data set [9], 0.219 µL/min/mg. Further, in data set [3] (general statement), the development of osteoclasts result is given as “inhibits the development of osteoclasts in a dose dependent manner”. For the same molecule, in data set [3] (summary statement), the osteoclast maturation entry is on record as “suppressed”. Besides, the “metabolism by recombinant enzyme” value in data set [4] (recombinant CYP2C9) is on record as “not metabolized”. Further, in data set [4] (recombinant CYP2C9, 1 μM, NADPH), the “ELP-004 t1/2” value is over 3 h. Further, the TRAP activity result in data set [7] is listed as “completed abrogated”. Further, in [7], the “expression patterns of osteoclast markers” value is given as “unaffected”. In addition, in data set [7], the multinucleation result was “severely attenuated”. In data set [8], the “effect on induction of CYP enzymes” value was “no deleterious effect”.
